Experimental data from ChEMBL document CHEMBL1201862, “PubChem BioAssay data set” (2004).
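Protocol summary: plate cells (96-well), add compound at 5 concentrations, incubate 48 h, interpolate endpoints linearly. The concentration for 50% growth inhibition is given as GI50.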 Activity calls are given as the source filed them. No stated cut-off is given here; in the data, active = GI50 up to about 1.1 µM and inactive = higher.

Assays:
Assay in all cases: inhibition of tumour cell growth, NCI panel, 48 h
KM12 = test system: KM12
Malme-3M = test system: Malme-3M
RPMI-8226 = test system: RPMI-8226
OVCAR-4 = test system: OVCAR-4
LOX IMVI = test system: LOX IMVI
MOLT-4 = test system: MOLT-4
NCI-H226 = test system: NCI-H226
A549 = test system: A549
SK-OV-3 = test system: SK-OV-3
SF-295 = test system: SF-295
IGROV-1 = test system: IGROV-1
SW-620 = test system: SW-620
BT-549 = test system: BT-549
SF-268 = test system: SF-268
HT-29 = test system: HT-29
U-251 = test system: U-251
TK-10 = test system: TK-10
RXF 393 = test system: RXF 393
K562 = test system: K562

Compound | GI50 (KM12) | GI50 (Malme-3M) | GI50 (RPMI-8226) | GI50 (OVCAR-4) | GI50 (LOX IMVI) | GI50 (MOLT-4) | GI50 (NCI-H226) | GI50 (A549) | GI50 (SK-OV-3) | GI50 (SF-295) | GI50 (IGROV-1) | GI50 (SW-620) | GI50 (BT-549) | GI50 (SF-268) | GI50 (HT-29) | GI50 (U-251) | GI50 (TK-10) | GI50 (RXF 393) | GI50 (K562)
CN[C@H]1CC[C@]23C[C@]24CC[C@]2(C)[C@@H]([C@H](C)N(C)C)CC[C@@]2(C)[C@@H]4CC[C@H]3C1(C)C | 15 µM (inactive) | 17.1 µM (inactive) | 12.9 µM (inactive) | 17.7 µM (inactive) | 5.32 µM (inactive) | 16.5 µM (inactive) | 16.5 µM (inactive) | 17.4 µM (inactive) | 19.1 µM (inactive) | 14.6 µM (inactive) | 16.8 µM (inactive) | 15.4 µM (inactive) | 12.7 µM (inactive) | 14.4 µM (inactive) | 2.85 µM (inactive) | 13.7 µM (inactive) | 18.3 µM (inactive) |  | 
COC(=O)c1cc(=O)n(-c2ccc3nn(C)nc3c2)cc1C(=O)OC | > 100 µM (inactive) | > 100 µM (inactive) | > 100 µM (inactive) | > 100 µM (inactive) |  | > 100 µM (inactive) | > 100 µM (inactive) | > 100 µM (inactive) | > 100 µM (inactive) | > 100 µM (inactive) | > 100 µM (inactive) | > 100 µM (inactive) | > 100 µM (inactive) | > 100 µM (inactive) | > 100 µM (inactive) | > 100 µM (inactive) | > 100 µM (inactive) | > 100 µM (inactive) | > 100 µM (inactive)
COC(=O)c1ccc2[nH]c3c(c2c1)CC(=O)Nc1ccccc1-3 | > 100 µM (inactive) | > 100 µM (inactive) | > 100 µM (inactive) | 0.673 µM (active) | > 100 µM (inactive) | 1.31 µM (inactive) | 7.31 µM (inactive) | > 100 µM (inactive) | 41.7 µM (inactive) | > 100 µM (inactive) | 44.2 µM (inactive) | > 100 µM (inactive) | 1.86 µM (inactive) | 9.18 µM (inactive) | > 100 µM (inactive) | 6.68 µM (inactive) | 83.9 µM (inactive) |  | 27.4 µM (inactive)
O=S(=O)(O)c1cccc2ccc(O)c(/N=N\c3ccc(S(=O)(=O)c4ccc(/N=N/c5c(O)ccc6cccc(S(=O)(=O)O)c56)cc4)cc3)c12 | 67.3 µM (inactive) | > 100 µM (inactive) | > 100 µM (inactive) | > 100 µM (inactive) |  | > 100 µM (inactive) | > 100 µM (inactive) | > 100 µM (inactive) | > 100 µM (inactive) | > 100 µM (inactive) | 81.5 µM (inactive) | > 100 µM (inactive) | > 100 µM (inactive) | > 100 µM (inactive) | > 100 µM (inactive) | > 100 µM (inactive) | > 100 µM (inactive) | > 100 µM (inactive) | 50.4 µM (inactive)
C=C([C@@]1(O)C[C@H]2[C@H](CCC2(OC)OC)[C@@H]2c3ccccc3O[C@@H]21)[Si](C)(C)C | > 100 µM (inactive) |  | 44.4 µM (inactive) | > 100 µM (inactive) | > 100 µM (inactive) | > 100 µM (inactive) | > 100 µM (inactive) | > 100 µM (inactive) | > 100 µM (inactive) | > 100 µM (inactive) | > 100 µM (inactive) | > 100 µM (inactive) | > 100 µM (inactive) | > 100 µM (inactive) | > 100 µM (inactive) | > 100 µM (inactive) | > 100 µM (inactive) |  | 59.3 µM (inactive)
CCCc1cc(=O)oc2c(C=O)c(O)cc(O)c12 | 22.7 µM (inactive) | 18.5 µM (inactive) | 28 µM (inactive) | 25.8 µM (inactive) | 20 µM (inactive) | 23.3 µM (inactive) |  | 31.7 µM (inactive) | 27.8 µM (inactive) | 29.9 µM (inactive) | 30.9 µM (inactive) | 21.8 µM (inactive) | 25.1 µM (inactive) | 26.6 µM (inactive) | 22.1 µM (inactive) | 22.5 µM (inactive) | > 100 µM (inactive) | 24 µM (inactive) | 57.4 µM (inactive)
NC(=S)N/N=C1\CCCCc2ccccc21 | > 10 µM (inactive) | > 10 µM (inactive) | > 10 µM (inactive) | > 10 µM (inactive) |  | > 10 µM (inactive) | > 10 µM (inactive) | > 10 µM (inactive) |  | > 10 µM (inactive) |  | > 10 µM (inactive) | > 10 µM (inactive) | > 10 µM (inactive) | > 10 µM (inactive) | > 10 µM (inactive) | > 10 µM (inactive) | > 10 µM (inactive) | > 10 µM (inactive)
Cc1ccc(/N=N/C(=O)NNc2ccc(C)cc2Br)c(Br)c1 |  | 19.6 µM (inactive) | 20 µM (inactive) | 37.5 µM (inactive) | 18 µM (inactive) | 10.4 µM (inactive) | 21.3 µM (inactive) | 24.4 µM (inactive) |  |  | 20.8 µM (inactive) | 32.7 µM (inactive) | 27.2 µM (inactive) | 25.8 µM (inactive) | 40.9 µM (inactive) | 16.1 µM (inactive) | 31.1 µM (inactive) |  | 16.4 µM (inactive)
COc1cccc2c1-c1nc(N)c3c(OC)cccc3c1C2=O | 16.1 µM (inactive) | > 100 µM (inactive) | > 100 µM (inactive) | 62.8 µM (inactive) | 59.7 µM (inactive) | 53.5 µM (inactive) | 48.3 µM (inactive) | > 100 µM (inactive) | > 100 µM (inactive) | > 100 µM (inactive) | > 100 µM (inactive) | > 100 µM (inactive) | > 100 µM (inactive) | 68.4 µM (inactive) | 28.8 µM (inactive) | > 100 µM (inactive) | > 100 µM (inactive) |  | 64.7 µM (inactive)
NC1(CCNC(=O)c2ccccc2)CCN(C(=O)c2ccccc2)CC1 | > 100 µM (inactive) | 29.2 µM (inactive) | > 100 µM (inactive) |  |  | > 100 µM (inactive) | > 100 µM (inactive) | > 100 µM (inactive) | > 100 µM (inactive) | > 100 µM (inactive) | > 100 µM (inactive) | > 100 µM (inactive) | > 100 µM (inactive) | > 100 µM (inactive) | > 100 µM (inactive) | > 100 µM (inactive) | > 100 µM (inactive) | > 100 µM (inactive) | > 100 µM (inactive)
O=C1/C(=C/c2cccc(Cl)c2)CCCc2ccccc21 | 17.9 µM (inactive) | 19.1 µM (inactive) | 8.26 µM (inactive) | 15.8 µM (inactive) | 17.8 µM (inactive) | 15.2 µM (inactive) | 16.1 µM (inactive) | 26.5 µM (inactive) | 45.8 µM (inactive) | 17.5 µM (inactive) | 15.4 µM (inactive) | 16.9 µM (inactive) | 19.7 µM (inactive) | 16.8 µM (inactive) | 15.8 µM (inactive) | 15.8 µM (inactive) | 18 µM (inactive) |  | 14.3 µM (inactive)
O=C(Cc1nc2ncccc2[nH]c1=O)c1c[nH]c2ccccc12 | 17.5 µM (inactive) | 17.6 µM (inactive) | 16.7 µM (inactive) |  | 20.7 µM (inactive) | 26.4 µM (inactive) |  | 20 µM (inactive) | 16.3 µM (inactive) | 16.5 µM (inactive) | 17.3 µM (inactive) | 17.1 µM (inactive) | 29.4 µM (inactive) | 14.9 µM (inactive) | 23 µM (inactive) | 17.7 µM (inactive) | 16.7 µM (inactive) | 22 µM (inactive) | 21.4 µM (inactive)
O=Cc1c(-c2ccccc2)nc2ccccc2c1O | 30.3 µM (inactive) | 54 µM (inactive) | 34.7 µM (inactive) | > 100 µM (inactive) | 42.2 µM (inactive) | 55.7 µM (inactive) | > 100 µM (inactive) | 54 µM (inactive) | > 100 µM (inactive) | 97.9 µM (inactive) | 53.8 µM (inactive) | 50.6 µM (inactive) | > 100 µM (inactive) | 59.3 µM (inactive) | 39.9 µM (inactive) | 74.3 µM (inactive) | > 100 µM (inactive) |  | 
Oc1[nH]c(Nc2ccc(Cl)cc2)nc2ncnc1-2 | > 100 µM (inactive) | > 100 µM (inactive) | > 100 µM (inactive) | 64.7 µM (inactive) | > 100 µM (inactive) |  | > 100 µM (inactive) | > 100 µM (inactive) | > 100 µM (inactive) | > 100 µM (inactive) | > 100 µM (inactive) | > 100 µM (inactive) | > 100 µM (inactive) | 55 µM (inactive) | 47.4 µM (inactive) | > 100 µM (inactive) | > 100 µM (inactive) |  | 
Cc1cc2c(s1)C(N)CC2=O (configuration not stated) | > 100 µM (inactive) | > 100 µM (inactive) | > 100 µM (inactive) |  |  | > 100 µM (inactive) |  | > 100 µM (inactive) | > 100 µM (inactive) |  | > 100 µM (inactive) | > 100 µM (inactive) | > 100 µM (inactive) | > 100 µM (inactive) | > 100 µM (inactive) | > 100 µM (inactive) | > 100 µM (inactive) | > 100 µM (inactive) | > 100 µM (inactive)
CCOC(=O)CCN1C(=O)c2ccc(NC(=O)C(=O)O)cc2S1(=O)=O | > 100 µM (inactive) | > 100 µM (inactive) | > 100 µM (inactive) | > 100 µM (inactive) | > 100 µM (inactive) | > 100 µM (inactive) | > 100 µM (inactive) | > 100 µM (inactive) | > 100 µM (inactive) | > 100 µM (inactive) | > 100 µM (inactive) | > 100 µM (inactive) | > 100 µM (inactive) |  | > 100 µM (inactive) | > 100 µM (inactive) | > 100 µM (inactive) |  | > 100 µM (inactive)
